Patent publication US6969507B2, “Imaging sexual response” (Epix Pharmaceuticals, Inc., priority 1999, dated 2005)

Experiment: Dynamic MS-325 contrast-enhanced MRI of the genitalia/perineum during neutral and erotic video
Type: in vivo, human
Conditions: eight healthy women; 0.05 or 0.02 mmol/kg intravenous
Method: Imaging of the genitalia was performed in four pre-menopausal and four post-menopausal healthy, sexually functional women subjects after administration of MS-325 (MS-325, EPIX Medical, Inc.). All volunteers signed an IRB-approved informed consent form for the study.
Six of the subjects received an intravenous injection of 0.05 mmol/kg of MS-325 and two received an intravenous injection of 0.02 mmol/kg of MS-325. Dynamic MRI (3D SPGR, 11/1.7/35°) of the perineum was performed on all subjects while they viewed videos containing first neutral material, then erotic material and finally neutral material via a fiberoptic audiovideo system. Each segment of neutral or erotic material was up to 15 minutes in length. Subjects also filled out questionnaires in response to the videos that had them subjectively rate their degree of sexual arousal.
Serial imaging was performed at least every 3 minutes, beginning just prior to contrast injection and continuing up to 45 minutes post injection. […] Clitoral volume was measured at each time point. Relative regional blood volume was determined from signal intensity versus time curves and compared with subjective measures of arousal.
In these studies, MRI was compared with vaginal photoplethysmography to confirm that MRI accurately assessed the vascular component of the arousal response.

Q: Which “tolerability of the procedure (contrast injection and MRI)” value does the source give for `O=C([O-])CN(CCN(CC(=O)[O-])C[C@H](COP(=O)([O-])OC1CCC(c2ccccc2)(c2ccccc2)CC1)N(CC(=O)[O-])CC(=O)[O-])CC(=O)[O-].[Gd+3].[H+].[H+].[H+]` [MS-325] here?
A: tolerated
